Legend:
[1] = tested on: panel of 61 protein kinases; experiment: Panel of 61 protein kinases; assay type: biochemical, human; conditions: 10 μM
Excerpt: Utilizing the crystal structure of PI3Kδ, we designed and synthesized a series of compounds in an effort to discover new potent and selective PI3Kδ inhibitors, which bind to PI3Kδ differently from CAL-101. […] The benzimidazole group of X-370 extends into the affinity pocket, where its nitrogen acts as a hydrogen bond acceptor for the primary amine of Lys779. The difluoromethyl group of X-370 points toward Pro758 in the hydrophobic affinity pocket. Instead of wedging between Met752 and Trp760, a binding mode utilized by CAL-101 to generate specificity against PI3Kδ (Figure S1), the pyrrole group of X-370 presses tightly against Trp760. These specific interactions of X-370 with p110δ confer a selective and potent inhibition of PI3Kδ. […]
In vitro kinase profile assays were analyzed by the Kinase Profiler Service (Millipore, United Kingdom) following its guidelines. […] The PI3K kinase activity was determined in the increasing concentration of ATP and X-370 with PI3-Kinase HTRF™ Assay kit (Millipore) as described previously. […]
Cell lysates were probed with indicated antibodies. The IC50 values were calculated based on relative band intensity measured with ImageQuant™ TL (GE Healthcare Life Sciences, Piscataway, NJ). […]

[2] = target: T1, ALK (Homo sapiens, UniProt Q9UM73); experiment: KinaseProfiler protein kinase activity; assay type: biochemical; conditions: 10 μM X-370
T1 construct: purchased Millipore KinaseProfiler
Procedure: (§1) In vitro kinase profile assays were analyzed by the Kinase Profiler Service (Millipore, United Kingdom) following its guidelines. A GST-tagged human p110δ and regulatory full-length p85 were co-expressed in insect cell Sf9. Recombinant protein was extracted by affinity purification. The PI3K kinase activity was determined in the increasing concentration of ATP and X-370 with PI3-Kinase HTRF™ Assay kit (Millipore) as described previously. […]
(§2) Table S1: Inhibitory activity of X-370 against protein kinases
(§3) kinome at 10 μM. The relative kianse activity left in the presence of 10 μM were shown (Mi llipore
(§4) Kinase activity (% of control) Kinase activity (% of control) Kinase activity (% of control)
(§5) CDK1/cyclinB 97 Lck activated 89 Ret 125

[3] = target: T2, TBK1 (Homo sapiens, UniProt Q9UHD2); experiment: KinaseProfiler protein kinase activity; assay type: biochemical; conditions: 10 μM X-370
T2 construct: purchased Millipore KinaseProfiler
Procedure: as §1, §2, §3, §4, §5

[4] = target: T3, PDGFR α (Homo sapiens, UniProt P16234); experiment: KinaseProfiler protein kinase activity; assay type: biochemical; conditions: 10 μM X-370
T3 construct: purchased Millipore KinaseProfiler
Procedure: as §1, §2, §3, §4, §5

[5] = target: T4, EGFR (Homo sapiens, UniProt P00533); experiment: KinaseProfiler protein kinase activity; assay type: biochemical; conditions: 10 μM X-370
T4 construct: purchased Millipore KinaseProfiler
Procedure: as §1, §2, §3, §4, §5

[6] = target: T5, SGK (Homo sapiens, UniProt O00141); experiment: KinaseProfiler protein kinase activity; assay type: biochemical; conditions: 10 μM X-370
T5 construct: purchased Millipore KinaseProfiler
Procedure: as §1, §2, §3, §4, §5

[7] = target: T6, PKC μ (Homo sapiens, UniProt Q15139); experiment: KinaseProfiler protein kinase activity; assay type: biochemical; conditions: 10 μM X-370
T6 construct: purchased Millipore KinaseProfiler
Procedure: as §1, §2, §3, §4, §5

[8] = target: T7, CaMKI (Homo sapiens, UniProt Q14012); experiment: KinaseProfiler protein kinase activity; assay type: biochemical; conditions: 10 μM X-370
T7 construct: purchased Millipore KinaseProfiler
Procedure: as §1, §2, §3, §4, §5

[9] = target: T8, IGF-1R, activated (Homo sapiens, UniProt P08069); experiment: KinaseProfiler protein kinase activity; assay type: biochemical; conditions: 10 μM X-370
T8 construct: purchased Millipore KinaseProfiler
Procedure: as §1, §2, §3, §4, §5

[10] = target: T9, Src(1-530) (Homo sapiens, UniProt P12931); experiment: KinaseProfiler protein kinase activity; assay type: biochemical; conditions: 10 μM X-370
T9 construct: purchased Millipore KinaseProfiler
Procedure: as §1, §2, §3, §4, §5

[11] = target: T10, Axl (Homo sapiens, UniProt P30530); experiment: KinaseProfiler protein kinase activity; assay type: biochemical; conditions: 10 μM X-370
T10 construct: purchased Millipore KinaseProfiler
Procedure: as §1, §2, §3, §4, §5

[12] = target: T11, DYRK2 (Homo sapiens, UniProt Q92630); experiment: KinaseProfiler protein kinase activity; assay type: biochemical; conditions: 10 μM X-370
T11 construct: purchased Millipore KinaseProfiler
Procedure: as §1, §2, §3, §4, §5

[13] = target: T12, EphA1 (Homo sapiens, UniProt P21709); experiment: KinaseProfiler protein kinase activity; assay type: biochemical; conditions: 10 μM X-370
T12 construct: purchased Millipore KinaseProfiler
Procedure: as §1, §2, §3, §4, §5

[14] = target: T13, FGFR1 (Homo sapiens, UniProt P11362); experiment: KinaseProfiler protein kinase activity; assay type: biochemical; conditions: 10 μM X-370
T13 construct: purchased Millipore KinaseProfiler
Procedure: as §1, §2, §3, §4, §5

[15] = target: T14, IRAK1 (Homo sapiens, UniProt P51617); experiment: KinaseProfiler protein kinase activity; assay type: biochemical; conditions: 10 μM X-370
T14 construct: purchased Millipore KinaseProfiler
Procedure: as §1, §2, §3, §4, §5

[16] = target: T15, p70S6K (Homo sapiens, UniProt P23443); experiment: KinaseProfiler protein kinase activity; assay type: biochemical; conditions: 10 μM X-370
T15 construct: purchased Millipore KinaseProfiler
Procedure: as §1, §2, §3, §4, §5

[17] = target: T16, c-RAF (Homo sapiens, UniProt P04049); experiment: KinaseProfiler protein kinase activity; assay type: biochemical; conditions: 10 μM X-370
T16 construct: purchased Millipore KinaseProfiler
Procedure: as §1, §2, §3, §4, §5

[18] = target: T17, JNK1 α1 (Homo sapiens, UniProt P45983); experiment: KinaseProfiler protein kinase activity; assay type: biochemical; conditions: 10 μM X-370
T17 construct: purchased Millipore KinaseProfiler
Procedure: as §1, §2, §3, §4, §5

[19] = target: T18, MARK1 (Homo sapiens, UniProt Q9P0L2); experiment: KinaseProfiler protein kinase activity; assay type: biochemical; conditions: 10 μM X-370
T18 construct: purchased Millipore KinaseProfiler
Procedure: as §1, §2, §3, §4, §5

[20] = target: T19, KDR (Homo sapiens, UniProt P35968); experiment: KinaseProfiler protein kinase activity; assay type: biochemical; conditions: 10 μM X-370
T19 construct: purchased Millipore KinaseProfiler
Procedure: as §1, §2, §3, §4, §5

[21] = target: T20, MAPKAP-K2 (Homo sapiens, UniProt P49137); experiment: KinaseProfiler protein kinase activity; assay type: biochemical; conditions: 10 μM X-370
T20 construct: purchased Millipore KinaseProfiler
Procedure: as §1, §2, §3, §4, §5

[22] = target: T21, Syk (Homo sapiens, UniProt P43405); experiment: KinaseProfiler protein kinase activity; assay type: biochemical; conditions: 10 μM X-370
T21 construct: purchased Millipore KinaseProfiler
Procedure: as §1, §2, §3, §4, §5

[23] = target: T22, PKB α (Homo sapiens, UniProt P31749); experiment: KinaseProfiler protein kinase activity; assay type: biochemical; conditions: 10 μM X-370
T22 construct: purchased Millipore KinaseProfiler
Procedure: as §1, §2, §3, §4, §5

[24] = tested on: Raji-R cells; experiment: Proliferation of rituximab-resistant Raji-R cells (CCK-8); assay type: cell-based, human
Procedure: Raji and SU-DHL-6 cells were treated with X-370 for 1 h (left panel) or treated with 0.5 μM X-370 for indicated times (middle panel). Right panel, Raji cells were incubated in fresh medium following treatment with 0.5 μM X-370 for 1 h. Indicated proteins were detected. (B) Raji-R (the rituximab-resistant derivatives of Raji cells) cells were resistant to X-370. The activity of X-370 on the proliferation of Raji parent and Raji-R cells was determined by CCK-8 assay as described in the methods section. (C) X-370 blocked phosphorylation of Akt but not Erk1/2 in Raji-R cells. Raji-R cells were treated with X-370 for 1h and indicated proteins were detected. Data shown are representative from three independent experiments.
Cell viability was assessed using Cell Counting Kit (CCK-8, Dojindo, Japan) following the manufacturer's protocol and OD values were measured with a Spectramax M5 plate reader (Molecular Devices, Sunnyvale, CA)[45].

T19 sequence (P35968 20-1356): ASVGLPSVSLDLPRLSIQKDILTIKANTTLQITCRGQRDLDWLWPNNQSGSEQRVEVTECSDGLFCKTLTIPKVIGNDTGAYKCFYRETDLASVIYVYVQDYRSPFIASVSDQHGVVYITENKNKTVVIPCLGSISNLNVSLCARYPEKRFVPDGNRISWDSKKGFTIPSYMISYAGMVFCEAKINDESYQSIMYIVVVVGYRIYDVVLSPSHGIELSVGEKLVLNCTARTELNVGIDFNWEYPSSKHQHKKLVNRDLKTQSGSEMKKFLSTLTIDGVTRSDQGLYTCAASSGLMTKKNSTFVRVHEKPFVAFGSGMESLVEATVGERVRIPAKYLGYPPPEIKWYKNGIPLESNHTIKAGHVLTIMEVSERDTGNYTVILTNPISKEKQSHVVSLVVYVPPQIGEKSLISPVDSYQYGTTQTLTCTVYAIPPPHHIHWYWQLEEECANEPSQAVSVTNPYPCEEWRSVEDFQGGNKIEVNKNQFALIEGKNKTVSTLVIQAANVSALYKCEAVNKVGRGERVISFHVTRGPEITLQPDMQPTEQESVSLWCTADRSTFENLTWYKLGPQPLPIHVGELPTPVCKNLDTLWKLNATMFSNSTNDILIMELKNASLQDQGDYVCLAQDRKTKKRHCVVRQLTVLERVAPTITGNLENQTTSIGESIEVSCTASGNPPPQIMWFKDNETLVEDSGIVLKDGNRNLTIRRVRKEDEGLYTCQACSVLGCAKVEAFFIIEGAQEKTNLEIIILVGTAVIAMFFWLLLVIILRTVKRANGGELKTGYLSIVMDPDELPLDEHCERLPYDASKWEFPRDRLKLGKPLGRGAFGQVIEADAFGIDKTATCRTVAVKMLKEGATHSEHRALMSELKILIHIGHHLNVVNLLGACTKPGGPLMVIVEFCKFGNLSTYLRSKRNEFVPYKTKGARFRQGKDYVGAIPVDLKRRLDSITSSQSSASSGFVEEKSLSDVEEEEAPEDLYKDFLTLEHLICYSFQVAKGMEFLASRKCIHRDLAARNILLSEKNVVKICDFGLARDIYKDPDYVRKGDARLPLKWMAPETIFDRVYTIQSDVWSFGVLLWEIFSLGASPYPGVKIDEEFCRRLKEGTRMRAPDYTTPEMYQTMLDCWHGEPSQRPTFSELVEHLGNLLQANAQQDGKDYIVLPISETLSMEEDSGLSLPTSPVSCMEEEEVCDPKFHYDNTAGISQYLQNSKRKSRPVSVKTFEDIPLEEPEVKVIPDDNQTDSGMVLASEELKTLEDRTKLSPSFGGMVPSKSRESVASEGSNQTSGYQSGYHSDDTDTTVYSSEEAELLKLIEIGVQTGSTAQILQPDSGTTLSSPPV
T2 sequence (Q9UHD2 whole entry): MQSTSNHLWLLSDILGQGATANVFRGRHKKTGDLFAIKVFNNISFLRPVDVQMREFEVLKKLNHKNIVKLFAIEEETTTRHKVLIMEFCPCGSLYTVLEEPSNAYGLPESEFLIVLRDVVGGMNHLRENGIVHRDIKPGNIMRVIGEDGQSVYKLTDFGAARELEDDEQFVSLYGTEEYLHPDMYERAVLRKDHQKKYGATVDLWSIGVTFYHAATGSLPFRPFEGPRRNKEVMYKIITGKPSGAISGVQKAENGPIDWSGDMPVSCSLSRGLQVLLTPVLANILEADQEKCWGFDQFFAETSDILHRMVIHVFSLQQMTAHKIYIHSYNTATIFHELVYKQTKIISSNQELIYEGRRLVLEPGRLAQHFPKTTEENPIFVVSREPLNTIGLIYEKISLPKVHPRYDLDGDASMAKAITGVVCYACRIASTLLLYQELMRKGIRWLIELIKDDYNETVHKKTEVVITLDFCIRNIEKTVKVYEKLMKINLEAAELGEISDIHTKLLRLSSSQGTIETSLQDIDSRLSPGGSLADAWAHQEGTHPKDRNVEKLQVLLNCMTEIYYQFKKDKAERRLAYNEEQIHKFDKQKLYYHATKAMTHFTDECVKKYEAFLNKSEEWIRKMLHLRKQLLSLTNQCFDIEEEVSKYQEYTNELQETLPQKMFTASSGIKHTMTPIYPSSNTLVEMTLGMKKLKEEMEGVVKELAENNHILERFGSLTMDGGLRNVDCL
T3 sequence (P16234 24-1089): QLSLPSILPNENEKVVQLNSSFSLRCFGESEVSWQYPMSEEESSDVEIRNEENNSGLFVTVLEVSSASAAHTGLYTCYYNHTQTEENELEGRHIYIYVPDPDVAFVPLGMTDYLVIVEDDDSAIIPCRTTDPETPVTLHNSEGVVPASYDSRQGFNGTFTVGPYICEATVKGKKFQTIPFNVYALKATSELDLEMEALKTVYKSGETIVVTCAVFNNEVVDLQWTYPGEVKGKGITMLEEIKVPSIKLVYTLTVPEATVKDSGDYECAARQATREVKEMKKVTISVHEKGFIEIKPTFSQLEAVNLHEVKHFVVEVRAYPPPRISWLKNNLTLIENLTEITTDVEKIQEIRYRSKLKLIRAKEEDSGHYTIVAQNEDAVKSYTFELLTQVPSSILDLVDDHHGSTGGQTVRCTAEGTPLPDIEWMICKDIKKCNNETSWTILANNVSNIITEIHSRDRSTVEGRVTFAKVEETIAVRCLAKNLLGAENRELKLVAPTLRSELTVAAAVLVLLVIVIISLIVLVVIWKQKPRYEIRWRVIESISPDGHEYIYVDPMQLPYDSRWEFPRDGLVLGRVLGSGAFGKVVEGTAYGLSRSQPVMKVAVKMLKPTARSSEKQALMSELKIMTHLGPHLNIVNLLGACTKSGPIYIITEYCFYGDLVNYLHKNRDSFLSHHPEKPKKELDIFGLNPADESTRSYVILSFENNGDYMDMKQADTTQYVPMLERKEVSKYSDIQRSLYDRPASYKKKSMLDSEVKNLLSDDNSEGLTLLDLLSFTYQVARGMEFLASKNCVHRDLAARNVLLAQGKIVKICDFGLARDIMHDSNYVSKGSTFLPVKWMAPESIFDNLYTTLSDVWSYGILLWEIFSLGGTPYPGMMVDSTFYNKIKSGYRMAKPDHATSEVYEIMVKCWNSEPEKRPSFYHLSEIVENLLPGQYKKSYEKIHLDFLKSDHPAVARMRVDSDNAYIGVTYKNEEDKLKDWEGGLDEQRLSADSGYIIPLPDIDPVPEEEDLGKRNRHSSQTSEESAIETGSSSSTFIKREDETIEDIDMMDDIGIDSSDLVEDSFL
T10 sequence (P30530 26-894): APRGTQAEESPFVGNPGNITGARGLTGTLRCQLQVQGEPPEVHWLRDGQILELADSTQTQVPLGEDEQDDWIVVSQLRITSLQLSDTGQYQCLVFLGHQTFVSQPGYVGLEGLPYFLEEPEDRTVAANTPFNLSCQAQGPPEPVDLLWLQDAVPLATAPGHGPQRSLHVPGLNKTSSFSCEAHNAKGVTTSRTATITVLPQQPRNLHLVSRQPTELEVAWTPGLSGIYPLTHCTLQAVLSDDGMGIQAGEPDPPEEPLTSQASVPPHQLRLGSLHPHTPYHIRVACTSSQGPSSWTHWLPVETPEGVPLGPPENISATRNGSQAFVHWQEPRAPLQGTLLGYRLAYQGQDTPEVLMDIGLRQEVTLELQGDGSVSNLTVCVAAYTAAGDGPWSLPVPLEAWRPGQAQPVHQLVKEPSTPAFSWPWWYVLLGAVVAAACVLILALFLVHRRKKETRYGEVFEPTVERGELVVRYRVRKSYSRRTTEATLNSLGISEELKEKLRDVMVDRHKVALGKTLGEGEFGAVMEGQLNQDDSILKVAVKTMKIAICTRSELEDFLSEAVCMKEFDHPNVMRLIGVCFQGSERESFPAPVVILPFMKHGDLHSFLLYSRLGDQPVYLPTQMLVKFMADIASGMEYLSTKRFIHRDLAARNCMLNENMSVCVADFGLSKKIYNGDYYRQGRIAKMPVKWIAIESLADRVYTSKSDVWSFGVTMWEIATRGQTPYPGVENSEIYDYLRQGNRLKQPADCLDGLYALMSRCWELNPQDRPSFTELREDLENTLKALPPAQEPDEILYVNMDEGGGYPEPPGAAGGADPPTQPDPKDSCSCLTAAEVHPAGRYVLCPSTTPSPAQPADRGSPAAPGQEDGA
T16 sequence (P04049 whole entry): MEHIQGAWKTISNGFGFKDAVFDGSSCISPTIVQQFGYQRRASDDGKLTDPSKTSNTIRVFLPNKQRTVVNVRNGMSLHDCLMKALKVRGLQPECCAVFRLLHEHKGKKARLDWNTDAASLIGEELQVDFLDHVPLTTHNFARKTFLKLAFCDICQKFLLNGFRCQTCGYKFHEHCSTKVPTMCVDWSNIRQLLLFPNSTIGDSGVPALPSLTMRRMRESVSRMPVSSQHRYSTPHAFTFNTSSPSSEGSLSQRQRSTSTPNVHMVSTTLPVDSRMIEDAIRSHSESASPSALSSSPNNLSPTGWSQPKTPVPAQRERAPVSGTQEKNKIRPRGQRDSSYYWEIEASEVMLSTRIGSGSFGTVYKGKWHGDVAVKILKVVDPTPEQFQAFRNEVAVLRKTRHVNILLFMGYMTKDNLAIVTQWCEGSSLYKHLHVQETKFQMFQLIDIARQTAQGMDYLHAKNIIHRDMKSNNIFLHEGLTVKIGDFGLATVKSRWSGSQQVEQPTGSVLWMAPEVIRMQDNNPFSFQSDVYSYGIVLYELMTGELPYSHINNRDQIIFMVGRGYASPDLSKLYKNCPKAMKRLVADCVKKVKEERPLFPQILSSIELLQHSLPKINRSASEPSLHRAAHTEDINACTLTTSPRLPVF
T17 sequence (P45983 1-384 isoform P45983-2): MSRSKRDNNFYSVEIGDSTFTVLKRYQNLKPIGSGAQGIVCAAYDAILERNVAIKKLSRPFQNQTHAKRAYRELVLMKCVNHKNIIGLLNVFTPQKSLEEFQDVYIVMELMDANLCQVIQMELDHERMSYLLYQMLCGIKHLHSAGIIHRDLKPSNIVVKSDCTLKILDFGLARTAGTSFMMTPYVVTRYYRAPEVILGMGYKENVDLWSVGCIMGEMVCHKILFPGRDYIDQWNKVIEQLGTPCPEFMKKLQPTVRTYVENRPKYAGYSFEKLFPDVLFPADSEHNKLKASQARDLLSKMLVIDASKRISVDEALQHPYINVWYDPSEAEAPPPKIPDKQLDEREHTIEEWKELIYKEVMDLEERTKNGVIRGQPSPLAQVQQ

- Kinase activity (% of control) [2]: 79 % of control
- Kinase activity (% of control) [3]: 93 % of control
- Kinase activity (% of control) [4]: 121 % of control
- Kinase activity (% of control) [5]: 90 % of control
- Kinase activity (% of control) [6]: 72 % of control
- Kinase activity (% of control) [7]: 98 % of control
- Kinase activity (% of control) [8]: 117 % of control
- Kinase activity (% of control) [9]: 120 % of control
- Kinase activity (% of control) [10]: 99 % of control
- Kinase activity (% of control) [11]: 106 % of control
- Kinase activity (% of control) [12]: 102 % of control
- Kinase activity (% of control) [13]: 99 % of control
- Kinase activity (% of control) [14]: 108 % of control
- Kinase activity (% of control) [15]: 106 % of control
- Kinase activity (% of control) [16]: 88 % of control
- Kinase activity (% of control) [17]: 50 % of control
- Kinase activity (% of control) [18]: 90 % of control
- Kinase activity (% of control) [19]: 89 % of control
- Kinase activity (% of control) [20]: 90 % of control
- Kinase activity (% of control) [21]: 95 % of control
- Kinase activity (% of control) [22]: 85 % of control
- Kinase activity (% of control) [23]: 87 % of control
Structure (SMILES): O=C(N1CCCC1)N1CCC(n2cnc3c(-n4c(C(F)F)nc5ccccc54)nc(N4CCOCC4)nc32)CC1 [X-370]
- activity against all kinases of the panel [1]: little activity
- sensitivity of proliferation compared to parental Raji cells [24]: resistant
